{"source": "patent US12673083B2", "about": "“TREM-1 inhibitors for the treatment of vaso-occlusions and tissue injuries in patients suffering from sickle cell disease” (INSERM (INSTITUT NATIONAL DE LA SANTÉ ET DE LA RECHERCHE …, priority 2019, dated 2026)", "key": {"Ter 119+ erythrocytes": {"system": "Ter 119+ erythrocytes", "assay": "Hypoxia-reoxygenation experimental vaso-occlusive crisis: vascular congestion with erythrocytes on histological sections", "assay_type": "in vivo, sickle cell mice (SS)", "procedure": "(§1) Experiments were performed on 4-6 week-old sex matched healthy control (Hba^tm1(HBA)Tow Hbb^tm3(HBG1,HBB) Tow) (HbAA (hα/hα::β^A/β^A)) and SCD (Hba^tm1(HBA)Tow Hbb^tm2(HBG1,HBB*)Tow) (HbSS (hα/hα::βS/βS)) mice as well as SAD transgenic sickle mice with or without Trem-1 gene deletion (TREM-1 KO). The animal protocol was approved by the Paris Descartes University Animal Care and Use Committee and the French Ministry of Agriculture. Animals were anesthetized with isoflurane, and whole blood was collected from each mouse via retro-orbital venipuncture by heparinized microcapillaries. In anesthetized animals, organs were immediately removed and divided into two and either immediately frozen in liquid nitrogen or fixed in 10% formalin and embedded in paraffin for histology.\n(§2) In order to test the pharmacological inhibition of TREM-1 on erythrocyte vascular congestion and neutrophils infiltrates, homozygous HbS (SS) mice were subjected to 14 hours hypoxia (8% oxygen) and then 1 hours reoxygenation (21% oxygen) to trigger acute vaso-occlusive crisis as previously described (Sabaa N et al. J Clin Invest. 2008 May; 118(5):1924-33). The TREM-1 inhibitory peptide for each of the hypoxia-reoxygenation experiments was administered by intraperitoneal injection just prior to the onset of hypoxia, as well as at the end of hypoxia, at the beginning of the reoxygenation phase. These conditions reproduce a situation of severe hypoxia for SCD, provoking crises and damage related to ischemia-reperfusion. After this experiment, the tissues were analyzed in the same way as for the SS mice in the base state."}, "neutrophils (PMNs)": {"system": "neutrophils (PMNs)", "assay": "Hypoxia-reoxygenation experimental vaso-occlusive crisis: abundance of neutrophils on histological sections", "assay_type": "in vivo, sickle cell mice (SS)", "procedure": "as §1, §2"}, "neutrophils": {"system": "neutrophils", "assay": "Intravital microscopy of neutrophils in post-capillary venous microcirculation of the cremaster after TNFα injection", "assay_type": "in vivo, HbSS knock-in sickle cell mice", "details": "HbSS mice", "procedure": "as §1\nTo characterize in vivo the effects of the TREM-1 pathway on neutrophils recruitment, we used a protocol as previously described (Koehl B et al. Haematologica. 2017 July; 102(7):1161-1172). Male mice were anaesthetized by spontaneous inhalation of isoflurane and maintained at 37° C. with a heating pad. The left jugular vein was cannulated to administer drugs and antibodies. […] 2 h after TNFα injection, the cremaster muscle was incised and neutrophils were monitored by injection of labeled Phycoerythrin-conjugated anti-Ly6G antibody (0.05 μg/g body weight, clone RB6-8C5, BD Biosciences Pharmingen). Venules were visualized with an intravital microscope (Zeiss Examiner D1) equipped with a water-immersion objective (Zeiss Plan-Apochromat 20×/1.0 NA) and fluorescence excitation was made through a Lambda DG-4 high-speed wavelength switcher (Sutter Instrument). […] Images were analyzed using SlideBook 6.0 software (Intelligent Imaging Innovations). The neutrophil rolling flux fraction, adhesion density, adhesion efficiency and transmigration were measured using playback assessment of 3-min digital time-lapse videos and 3D z-stack recordings of single unbranched venules (3 venules per mouse, 20-40 μm) from 2.5 hours to 5 hours after the TNFα challenge at 30-min intervals. […]"}, "[1]": {"details": "histological sections of lung, SS LR12 vs SS PBS"}}, "note": "Entries after “also recorded” stand apart in the source; their conditions may differ."}
{"substance": "LR12: 12 amino-acid TREM-1 inhibitory peptide LQEEDAGEYGCM, N-terminal 12 amino-acids of LR17 (TLT-1 derived) (Synthetic LR12)", "values": [{"measurement": "vascular congestion with Ter 119+ erythrocytes, liver", "setting": "Ter 119+ erythrocytes; histological sections of liver, SS LR12 vs SS PBS, intraperitoneal, hypoxia-reoxygenation", "value": "significant reduction"}, {"measurement": "vascular congestion with Ter 119+ erythrocytes, lung", "setting": "Ter 119+ erythrocytes; [1]", "value": "not in lung sections"}, {"measurement": "vascular congestion with Ter 119+ erythrocytes, renal medulla", "setting": "Ter 119+ erythrocytes; histological sections of renal medulla, SS LR12 vs SS PBS", "value": "significant reduction"}, {"measurement": "vascular congestion with Ter 119+ erythrocytes, spleen", "setting": "Ter 119+ erythrocytes; histological sections of spleen, SS LR12 vs SS PBS", "value": "significant reduction"}, {"measurement": "vascular congestion of tissues", "setting": "Ter 119+ erythrocytes; tissues of sickle cell mice (summary statement, FIGS. 3A-3D)", "value": "significant reduction"}, {"measurement": "abundance of neutrophils, liver (% green fluorescent surface)", "setting": "neutrophils (PMNs); histological sections of liver, SS LR12 vs SS PBS", "value": "significant reduction"}, {"measurement": "abundance of neutrophils, lung (% green fluorescent surface)", "setting": "neutrophils (PMNs); [1]", "value": "significant reduction"}, {"measurement": "abundance of neutrophils in tissues", "setting": "neutrophils (PMNs); tissues of sickle cell mice during experimental vaso-occlusive crisis (summary statement, FIGS. 4A and 4B)", "value": "significant reduction"}, {"measurement": "neutrophil rolling", "setting": "neutrophils; between 3 h and 4 h30 post-injection of TNFα, LR12 6 mg/kg 10 min before and 3 mg/kg 3 h15 after TNFα, 2way ANOVA P value=0.0041", "value": "significant reduction; also recorded: reduces"}, {"measurement": "neutrophil transmigration", "setting": "neutrophils; from 3 h to 5 h post-TNFα, 2way ANOVA P value <0.0001", "value": "significant reduction; also recorded: reduces"}, {"measurement": "neutrophil adhesion", "setting": "neutrophils; throughout the experiment after TNFα, 2way ANOVA P value <0.0001", "value": "significant reduction; also recorded: reduces"}]}
